Laboratory results published in patent US12484583B2 (priority 2019, dated 2025).

What was measured:
Rhizoctonia = details: in vivo
Fusarium culmorum = details: in vivo

Row | Compound | fungicidal activity of the insecticide by itself (Rhizoctonia) | stimulation of the fungicidal action of natamycin (Rhizoctonia) | fungicidal activity of the insecticide by itself (Fusarium culmorum) | stimulation of the fungicidal action of natamycin (Fusarium culmorum)
1 | abamectin | does not have fungicidal by itself | stimulates the fungicidal action of natamycin against different fungal pathogens on seeds | – | –
2 | O=[N+]([O-])NC1=NCCN1Cc1ccc(Cl)nc1 [Imidacloprid, N-[1-[(6-chloropyridin-3-yl)methyl]-4,5-dihydroimidazol-2-yl]nitramide] | – | – | does not have fungicidal activity by itself | stimulates the fungicidal action of natamycin on seeds of different plants
